What all share (format): cell-based
The subject of test [1] is IGROV1-R10 ovarian cancer cells. The test is described as follows: PARP and caspase 3 cleavage by western blot. Further details: key to PARP cleavage: +: a little band corresponding to the 85 kDa cleaved form of PARP is observable on the western blot; ++: a band corresponding to the 85 kDa cleaved form of PARP is clearly observable on the western blot; +++: PARP in nearly completely cleaved. The following applies: Molecule + Bcl-xL targeting siRNA. The procedure: (§1) Exponentially growing cells were transfected by siRNA as described below, and after 48 h, cells were continuously exposed to (Het)aromatic oligosystems (10, 25 or 50 μM) dissolved in DMSO (<0.1% of total volume) for 4 to 24 supplementary hours.
(§2) Cells were seeded in 25 cm^2 flasks the day before to reach 30-50% confluency at the time of transfection. The transfection INTERFERin™ reagent (Polyplus Transfection, Strasbourg. France) was added to siRNA diluted in Opti-MEM® reduced serum medium (Invitrogen, Cergy-Pontoise, France) and complexes formation was allowed to proceed for 15 min at RT before being applied to cells. The final siRNA concentration in the flasks was 20 nM.
Cells were rinsed with ice-cold PBS, suspended in a lysis buffer [RIPA:NaCl 150 mM, Tris (pH 8) 50 mM, Triton X100 1%, PMSF 4 mM, EDTA 5 mM, NaF 10 mM, NaPPi 10 mM, Na3OV4 1 mM, aprotinin 0.5 μl/ml and 4.6 ml ultra pure water] and incubated on ice for 30 minutes. Lysates were collected after centrifugation (13200 g, 10 min, 4° C.) and protein concentrations were determined using the Bradford assay (Bio-Rad, Hercules, USA). 20 μg of protein were separated by SDS-PAGE on a 4-12% gradient polyacrylamide gel (Invitrogen, Cergy-Pontoise, France) and transferred to Hybond-PVDF membranes (Amersham, Orsay, France). After blocking non-specific binding sites for 1 hour at RT by 5% (w/v) non-fat dry milk in TBS with 0.1% (v/v) Tween20 (T-TBS), the membranes were incubated overnight at 4° C. with the following rabbit monoclonal antibody: PARP, caspase-3 and Bcl-xL, Bim (Cell Signaling Technology, Ozyme, Saint-Quentin-en-Yvelines, France), Mcl-1 (Santa Cruz, Le Perray-en-Yvelines, France), HSP-70, Noxa (Calbiochem, Fontenay-sous-Bois, France), (Cell Signalling) and Actin (Sigma-Aldrich, Saint-Quentin Fallavier, France). Membranes were then washed with T-TBS and incubated for 1 hour with the appropriate horseradish peroxidase-conjugated anti-rabbit or anti-mouse (Amersham, Orsay, France) secondary antibodies. Revelation was done using a luminescent Image Analyzer (GE Healthcare, Orsay, France).
Background: Immunoblotting shows a protein as a band on a membrane.

The test system is the same in test [2]. The test is described as follows: DNA content histograms (sub-G1) by flow cytometry. The following applies: Molecule + Bcl-xL targeting siRNA. As for the experimental part:
as §1
Cells were seeded in 25 cm^2 flasks the day before to reach 30-50% confluency at the time of transfection. The transfection INTERFERin™ reagent (Polyplus Transfection, Strasbourg. France) was added to siRNA diluted in Opti-MEM® reduced serum medium (Invitrogen, Cergy-Pontoise, France) and complexes formation was allowed to proceed for 15 min at RT before being applied to cells. […]
Adherent and floating cells were pooled, washed with 1×PBS and centrifuged at 200 g for 5 min before staining by Annexin V, propidium iodide or both, as recommended by the manufacturer (Roche Diagnostic, Indianapolis, USA). Briefly, 100 μl of Annexin V—Flit or propidium iodide or both were added on the cells pellet (10^6 cells) and incubated 15 minutes at room temperature in obscurity. 500 μl of sample buffer was then added on the suspensions that were thereafter analyzed using a Gallios flow cytometer (Beckman Coulter, Roissy, France) and cell cycle distribution was determined using Kaluza acquisition software (Beckman Coulter).
In general terms: Flow cytometry measures light scatter and fluorescence of single cells or particles in a stream.

Test [3] shares this test system. Put plainly: Nuclear morphology after DAPI staining. Further details: key to Apoptotic nuclear features: +: a few condensed or fragmented nuclei are observable after DAPI staining; ++: numerous condensed or fragmented nuclei are observable after DAPI staining (20-50%); +++: most of the nuclei are condensed or fragmented. The following applies: Molecule + Bcl-xL targeting siRNA, DAPI staining. The procedure: as §1, §2
After treatment, both detached and adherent cells were pooled after trypsinization, applied to a polylysine-coated glass slide by cytocentrifugation and fixed with a solution of ethanol/chloroform/acetic acid (6:3:1). The preparations were then incubated for 15 min at room temperature with 1 μg/ml DAPI solution (Boehringer Mannheim-Roche, Mannheim, Germany), washed in distillated water, mounted under a coverslip in Mowiol (Calbiochem) and analyzed under a fluorescence microscope (BX51, Olympus, Rungis, France).
Cells were fixed with 2.5% glutaraldehyde in PBS buffer, included in agar, rinsed in Sorensen's buffer, post-fixed in osmium tetroxide 1% in Sorensen's buffer, deshydrated in ethanol and embedded in EPON resin. Ultrathin sections were cut and stained with uranyl acetate and lead citrate and examined using a JEOL1011 transmission electron microscope.

The test system is the same in test [4]. Put plainly: Cellular morphology / cell detachment, molecule alone or with Bcl-xL targeting siRNA. The following applies: Molecule + Bcl-xL targeting siRNA. As for the experimental part:
as §1, §2

The results in this text go back to patent publication US10307410B2, “Mcl-1 modulating compounds for cancer treatment” (CENTRE REGIONAL DE LUTTE CONTRE LE CANCER FRANCOIS BACLESSE, priority 2014, dated 2019).

Consider `Cc1cc(-c2ncc(-c3ccccc3)cc2/C=C/c2ccccc2)cnc1-c1ccccc1` [compound 30814, 3-methyl-2-phenyl-5-(5-phenyl-3-styrylpyridin-2-yl)pyridine], for which the PARP cleavage entry in test [1] is recorded as “+”. Besides, the “Sub-G1 (%)” value in test [2] is 37.2%. In test [3], the Apoptotic nuclear features result is “+”.

For the compound `COc1ccc(-c2cnc(-c3cnc(-c4ccc(OC)c(OC)c4)c(C)c3)c(/C=C/c3ccccc3)c2)cc1OC` [compound 30846, 2-(3,4-dimethoxyphenyl)-5-(5-(3,4-dimethoxyphenyl)-3-styrylpyridin-2-yl)-3-methylpyridine], the “Sub-G1 (%)” value in test [2] is 33.1%. For the same compound, in test [3], the Apoptotic nuclear features entry was “+”.

For `COc1cc(-c2cnc(-c3cnc(-c4cc(OC)c(OC)c(OC)c4)c(C)c3)c(/C=C/c3ccccc3)c2)cc(OC)c1OC` [compound 30847, 5-(3,4,5-trimethoxyphenyl)-2-(6-(3,4,5-trimethoxyphenyl)-5-methylpyridin-3-yl)-3-styrylpyridine], the “Sub-G1 (%)” value in test [2] is 22%. For the same compound, the Apoptotic nuclear features entry in test [3] is listed as “+”. The Cell detachment entry in test [4] was “± (very few cells were detached from the support (less than 10%))”.

Regarding `COc1ccc(-c2cnc(-c3cnc(-c4cc(OC)c(OC)c(OC)c4)c(C)c3)c(/C=C/c3ccccc3)c2)cc1OC` [compound 30849, 5-(3,4-dimethoxyphenyl)-2-(6-(3,4,5-trimethoxyphenyl)-5-methylpyridin-3-yl)-3-styrylpyridine], the “Sub-G1 (%)” value in test [2] stood at 19.9%. The Apoptotic nuclear features result in test [3] is reported as “+”.

`COc1ccc(-c2ncc(-c3ncc(-c4cc(OC)c(OC)c(OC)c4)cc3/C=C/c3ccccc3)cc2C)cc1OC` [compound 30850, 5-(3,4,5-trimethoxyphenyl)-2-(6-(3,4-dimethoxyphenyl)-5-methylpyridin-3-yl)-3-styrylpyridine]: the “Sub-G1 (%)” value in test [2] was determined as 20.2%. In addition, in test [3], the Apoptotic nuclear features result is listed as “+”.

As to `Cc1cc(-c2ncc(-c3ccc(C#N)cc3)cc2/C=C/c2ccccc2)cnc1-c1ccc(C#N)cc1` [compound 30854, 3-methyl-2-(4-cyanophenyl)-5-(5-(4-cyanophenyl)-3-styrylpyridin-2-yl)pyridine], the “Sub-G1 (%)” value in test [2] is 24.3%. Also, the Apoptotic nuclear features result in test [3] is recorded as “+”. Moreover, the Cell detachment entry in test [4] is listed as “± (very few cells were detached from the support (less than 10%))”.

`Cc1cc(-c2ncc(-c3sccc3C)cc2/C=C/c2ccccc2)cnc1-c1sccc1C` [compound 31336, 3-methyl-2-(3-methylthiophen-2-yl)-5-(5-(3-methylthiophen-2-yl)-3-(E)-styrylpyridin-2-yl)pyridine]: the “Sub-G1 (%)” value in test [2] was 48.8%. Also, the Apoptotic nuclear features entry in test [3] is “++ (numerous condensed or fragmented nuclei are observable after DAPI staining (20-50%))”.

On to `Cc1cc(-c2ncc(-c3ccccc3)cc2/C=C/c2ccccc2)cnc1-c1cccnc1` [compound 31348, 3-methyl-5-(5-phenyl-3-styrylpyridin-2-yl)-2-(pyridin-3-yl)pyridine], for which the PARP cleavage entry in test [1] is recorded as “+++”. In test [2], the “Sub-G1 (%)” value is 58.8%. In addition, the Apoptotic nuclear features entry in test [3] is recorded as “+++”.

On to `Cc1cc(-c2ncc(-c3cccnc3)cc2/C=C/c2ccccc2)cnc1-c1ccccc1` [compound 31349, 3-(6-(5-methyl-6-phenylpyridin-3-yl)-5-styrylpyridin-3-yl)pyridine], for which, in test [1], the PARP cleavage result is “+++”. The “Sub-G1 (%)” value in test [2] is recorded as 59.2%. In test [3], the Apoptotic nuclear features result is “+++”.

On to `Cc1cc(-c2ncc(-c3cnc(Cl)n3C)cc2/C=C/c2ccccc2)cnc1-c1cnc(Cl)n1C` [compound 31351, 5-(2-chloro-1-methyl-1H-imidazol-5-yl)-2-(6-(2-chloro-1-methyl-1H-imidazol-5-yl)-5-methylpyridin-3-yl)-3-styrylpyridine], for which the “Sub-G1 (%)” value in test [2] is on record as 56.7%. The Apoptotic nuclear features entry in test [3] is “+++”.

On to `Cc1cc(-c2ncc(-c3cncnc3)cc2/C=C/c2ccccc2)cnc1-c1cncnc1` [compound 31361, 5-(3-methyl-5-(5-(pyrimidin-5-yl)-3-styrylpyridin-2-yl)pyridin-2-yl)pyrimidine], for which the “Sub-G1 (%)” value in test [2] was 35.2%. In test [3], the Apoptotic nuclear features result is “++ (numerous condensed or fragmented nuclei are observable after DAPI staining (20-50%))”.

As for `Cc1cc(-c2ncc(-c3ccn[nH]3)cc2/C=C/c2ccccc2)cnc1-c1ccn[nH]1` [compound 31363, 2-(5-methyl-6-(1H-pyrazol-5-yl)pyridin-3-yl)-5-(1H-pyrazol-5-yl)-3-styrylpyridine], the “Sub-G1 (%)” value in test [2] is 63.7%. Also, the Apoptotic nuclear features result in test [3] is “+++”.

Turning to `Cc1cc(-c2ncc(-c3cccnc3)cc2/C=C/c2ccccc2)cnc1-c1cccc(O)c1` [compound 31364, 3-(3-methyl-5-(5-(pyridin-3-yl)-3-styrylpyridin-2-yl)pyridin-2-yl)phenol], the “Sub-G1 (%)” value in test [2] came out at 39.6%. The Apoptotic nuclear features result in test [3] is “++ (numerous condensed or fragmented nuclei are observable after DAPI staining (20-50%))”.

In the case of `Cc1cc(-c2ncc(-c3cccnc3)cc2/C=C/c2ccccc2)cnc1-c1cccc(C/C(N)=N/O)c1` [compound 31367, (1Z)—N′-hydroxy-2-(3-(3-methyl-5-(5-(pyridin-3-yl)-3-styrylpyridin-2-yl)pyridin-2-yl)phenyl)acetamidine], the “Sub-G1 (%)” value in test [2] came out at 52.7%. Moreover, in test [3], the Apoptotic nuclear features entry is reported as “+++”.
